Results published in US20230382870A1, “N-AROMATIC AMIDE COMPOUNDS, PREPARATION METHODS AND USES THEREOF” (SHENZHEN EDK PHARMACEUTICAL TECHNOLOGY CO., LTD., priority 2021, published 2023).

Biological target: androgen receptor (Rattus norvegicus (Rat), UniProt P15207)
Experiment: Androgen receptor competition binding with radiolabeled dihydrotestosterone (hydroxyapatite separation, scintillation counting)
Conditions: androgen receptor from prostate of male SD rats; competition with radiolabeled DHT; 4 Celsius degrees, 15 hours
Experimental: Reagents and instruments: radiolabeled dihydrotestosterone […] and unlabelled dihydrotestosterone (DHT) purchased from Sigma-Aldrich (St. Louis, Mo.), scintillation solution purchased from Perkin Elmer Life Sciences (Boston, Mass.), hydroxyapatite (HAP) suspension purchased from Bio-Rad Laboratories (Hercules, Calif.), buffer (containing 10 mM Tris, 1.5 mM disodium EDTA, 0.25 M sucrose, 10 mM sodium molybdate and 1 mM PMSF, pH value adjusted to 7.4), and hydroxyapatite (HAP) solution (containing 50 mM Tris and 1 mM KH2PO4, pH value adjusted to 7.4).
In the present invention, the biological activity of the N-aromatic amide compounds with the formula (I) and/or (II) is measured accord to the following method. […] The androgen receptor (prepared from the prostate of male SD rats, 200-250 g of male Sprague-Dawley rats) and the radiolabeled dihydrotestosterone ([…], 84 Ci/mmol) are added to the buffer and well mixed for preparing reaction solution. The concentration gradients of the diluted compounds are respectively added into the reaction solution and well mixed, and the resulting mixtures are incubated at 4 Celsius degrees for 15 hours, so that the compounds and the dihydrotestosterone can fully react with the androgen receptor. Thereafter, the hydroxyapatite (HAP) suspension is added therein, well mixed, incubated for 10 minutes at 4 Celsius degrees, and centrifuged for removing the supernatant containing free dihydrotestosterone. The dihydrotestosterone bound to the androgen receptor is adsorbed in the hydroxyapatite and thus retained in the precipitated particles, thereby separating the bound and unbound radiolabelled ligands. A scintillation solution is added to the precipitate, well mixed, and detected for the radioactivity intensity using a WALLACE MicroBeta Trilux Scintillator (Perkin Elmer).The detected radioactivity intensity values for the concentration gradients are processed to obtain values of ICso and K. The specific biological activity (the competition results between androgen receptor ligand and radioligand) is shown in the following table: […]

Chain of androgen receptor (P15207 whole entry S389L): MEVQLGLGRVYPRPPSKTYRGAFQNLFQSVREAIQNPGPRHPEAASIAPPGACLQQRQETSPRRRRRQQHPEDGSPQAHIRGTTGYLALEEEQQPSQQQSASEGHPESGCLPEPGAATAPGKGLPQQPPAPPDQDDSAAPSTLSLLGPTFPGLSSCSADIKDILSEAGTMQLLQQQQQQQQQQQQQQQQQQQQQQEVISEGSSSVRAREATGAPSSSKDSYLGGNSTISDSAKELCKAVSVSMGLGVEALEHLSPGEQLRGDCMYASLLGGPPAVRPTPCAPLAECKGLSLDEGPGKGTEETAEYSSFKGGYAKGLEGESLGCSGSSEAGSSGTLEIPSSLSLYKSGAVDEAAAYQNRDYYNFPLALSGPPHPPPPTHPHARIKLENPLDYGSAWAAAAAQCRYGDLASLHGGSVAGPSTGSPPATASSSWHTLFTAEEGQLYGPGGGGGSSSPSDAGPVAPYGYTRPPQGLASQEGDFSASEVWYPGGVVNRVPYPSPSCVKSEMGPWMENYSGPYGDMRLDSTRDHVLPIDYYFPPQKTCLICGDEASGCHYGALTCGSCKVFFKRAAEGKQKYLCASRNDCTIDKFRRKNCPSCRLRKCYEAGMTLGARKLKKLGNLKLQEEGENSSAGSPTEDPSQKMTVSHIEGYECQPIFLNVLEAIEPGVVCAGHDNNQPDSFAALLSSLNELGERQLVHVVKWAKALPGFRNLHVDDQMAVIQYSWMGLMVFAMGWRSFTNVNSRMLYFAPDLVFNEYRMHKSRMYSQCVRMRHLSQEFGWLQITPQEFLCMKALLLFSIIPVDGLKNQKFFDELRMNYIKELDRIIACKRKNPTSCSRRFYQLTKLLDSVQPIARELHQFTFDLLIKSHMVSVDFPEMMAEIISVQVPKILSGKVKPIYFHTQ

SMILES | IC50 [nM] | Ki [nM]
CC(C)(C(=O)Nc1ccc(C#N)c(C(F)(F)F)c1)n1ccc2c(F)cc(-c3ccc(F)cc3)cc21 [Example 1, N-(4-cyano-3-trifluoromethyl)-phenyl-2-[4-fluoro-6-(4-fluorophenyl)-1H-indolyl-1-yl]-2-methylpropanamide] | 546 | –
CC(C)(C(=O)Nc1ccc(C#N)c(C(F)(F)F)c1)n1ccc2cc(F)c(-c3ccccc3)cc21 [Example 2, N-(4-cyano-3-trifluoromethyl) phenyl-2-(5-fluoro-6-phenyl-1H-indolyl-1-yl)-2-methylpropanamide] | 337 | –
CC(C)(C(=O)Nc1ccc(C#N)c(C(F)(F)F)c1)n1ccc2cc(F)ccc21 [Example 3, N-(4-cyano-3-trifluoromethyl)-phenyl-2-(5-fluoro-1H-indolyl-1-yl)-2-methylpropanamide] | 215 | 367
CC(C)(C(=O)Nc1ccc(C#N)c(C(F)(F)F)c1)n1ccc2c(F)cccc21 [Example 4, N-(4-cyano-3-trifluoromethyl)-phenyl-2-(4-fluoro-1H-indolyl-1-yl)-2-methylpropanamide] | 246 | 491
CC(C)(C(=O)Nc1ccc(C#N)c(C(F)(F)F)c1)n1ccc2ccc(F)cc21 [Example 5, N-(4-cyano-3-trifluoromethyl)-phenyl-2-(6-fluoro-1H-indolyl-1-yl)-2-methylpropanamide] | 227 | 314
CC(C)(C(=O)Nc1ccc(C#N)c(C(F)(F)F)c1)n1ccc2cc([N+](=O)[O-])ccc21 [Example 6, N-(4-cyano-3-trifluoromethyl)-phenyl-2-(5-nitro-1H-indolyl-1-yl)-2-methylpropanamide] | 261 | 421
CC(C)(C(=O)Nc1ccc(C#N)c(C(F)(F)F)c1)n1ccc2cc(C(F)(F)F)ccc21 [Example 8, N-(4-cyano-3-trifluoromethyl)-phenyl-2-(5-trifluoromethyl-1H-indolyl-1-yl)-2-methylpropanamide] | 357 | 440
CC(C)(C(=O)Nc1ccc(C#N)c(C(F)(F)F)c1)n1ccc2cc(C#N)ccc21 [Example 9, N-(4-cyano-3-trifluoromethyl)-phenyl-2-(5-cyano-1H-indolyl-1-yl)-2-methylpropanamide] | 232 | 445
CC(C)(C(=O)Nc1ccc(C#N)c(C(F)(F)F)c1)N1CCc2cc(F)ccc21 [Example 10, N-(4-cyano-3-trifluoromethyl)-phenyl-2-(5-fluoro-1H-2,3-dihydroindolyl-1-yl)-2-methylpropanamide] | 437 | 387
CC(C)(C(=O)Nc1ccc(C#N)c(C(F)(F)F)c1)N1CCc2cc(F)c(F)cc21 [Example 11, N-(4-cyano-3-trifluoromethyl)-phenyl-2-(5,6-difluoro-1H-2,3-dihydroindolyl-1-yl)-2-methylpropanamide] | 505 | 505
CC(C)(C(=O)Nc1ccc(C#N)c(Cl)c1)n1ccc2cc(F)ccc21 [Example 12, N-(3-chloro-4-cyano) phenyl-2-(5-fluoro-1H-indolyl-1-yl)-2-methylpropanamide] | 205 | 351
CC(C)(C(=O)Nc1ccc(C#N)c(C(F)(F)F)c1)n1cc(-c2ccc(F)cc2)c(F)n1 [Example 13, N-(4-cyano-3-trifluoromethyl)-phenyl-2-[3-fluoro-4-(4-fluorophenyl)-1H-pyrazolyl-1-yl]-2-methylpropanamide] | 416 | –
CC(C)(C(=O)Nc1ccc(C#N)c(C(F)(F)F)c1)n1cc(-c2ccc(F)cc2)cn1 [Example 14, N-(4-cyano-3-trifluoromethyl)-phenyl-2-[4-(4-fluorophenyl)-1H-pyrazolyl-1-yl]-2-methylpropanamide] | 760 | –
CC(C)(C(=O)Nc1ccc(C#N)c(C(F)(F)F)c1)n1cc(F)cn1 [Example 15, N-(4-cyano-3-trifluoromethyl)-phenyl-2-(4-fluoro-1H-pyrazolyl-1-yl)-2-methylpropanamide] | 125 | –
CC(C)(C(=O)Nc1ccc(C#N)c(C(F)(F)F)c1)n1ccc(F)n1 [Example 16, N-(4-cyano-3-trifluoromethyl)-phenyl-2-(3-fluoro-1H-pyrazolyl-1-yl)-2-methylpropanamide] | 147 | –
CC(C)(C(=O)Nc1ccc(C#N)c(C(F)(F)F)c1)n1cc(Cl)cn1 [Example 17, N-(4-cyano-3-trifluoromethyl)-phenyl-2-(4-chloro-1H-pyrazolyl-1-yl)-2-methylpropanamide] | 116 | –
CC(C)(C(=O)Nc1cnc(C#N)c(C(F)(F)F)c1)n1cc(F)cn1 [Example 22] | 73 | –
N#Cc1ccc(NC(=O)C2(n3cc(F)cn3)CCC2)cc1C(F)(F)F [Example 23, N-(4-cyano-3-trifluoromethyl)-phenyl-1-(4-fluoro-1H-pyrazolyl-1-yl)-cyclobutane-formamide] | 115 | –
N#Cc1ncc(NC(=O)C2(n3cc(F)cn3)CCC2)cc1C(F)(F)F [Example 24, N-(6-cyano-5-trifluoromethyl-pyridyl-3-yl)-1-(4-fluoro-1H-pyrazolyl-1-yl) -cyclobutane-formamide] | 68 | –
CC(C)(C(=O)Nc1ccc(C#N)c(C(F)(F)F)c1)n1cc(Br)c(F)n1 [Example 25, 2-(4-bromo-3-fluoro-1H-pyrazolyl-1-yl)-N-(4-cyano-3-trifluoromethyl)-phenyl-2-methylpropanamide] | 91 | –
CC(C)(C(=O)Nc1ccc(C#N)c(C(F)(F)F)c1)n1cc(F)c(F)n1 [Example 26, 2-(3,4-difluoro-1H-pyrazolyl-1-yl)-N-(4-cyano-3-trifluoromethyl)-phenyl-2-methylpropanamide] | 75 | –
CC(C)(C(=O)Nc1ccc(C#N)c(C(F)(F)F)c1)n1cc(Cl)c(F)n1 [Example 29, 2-(3-fluoro-4-chloro-1H-pyrazolyl-1-yl)-N-(4-cyano-3-trifluoromethyl)-phenyl-2-methylpropanamide] | 105 | –
CC(C)(C(=O)Nc1ccc(C#N)c(C(F)(F)F)c1)n1cc(C#N)c(Cl)n1 [Example 30, 2-(3-chloro-4-cyano-1H-pyrazolyl-1-yl)-N-(4-cyano-3-trifluoromethyl)-phenyl-2-methylpropanamide] | 88 | –
